According to patent publication US20260116921A1, “PEPTIDE INHIBITORS OF INTERLEUKIN-23 RECEPTOR AND THEIR USE TO TREAT INFLAMMATORY DISEASES” (priority 2018, published 2026):
Where two headings read alike, the source gives them in different places. Bridge positions count the residues as written; N and C are the ends. Square brackets hold non-standard residues; d marks the D form. Peptide text beside a SMILES is read from it. Trp(7-Me) = Cc1cccc2c(C[C@H](N)C(=O)O)c[nH]c12; 2Nal = N[C@@H](Cc1ccc2ccccc2c1)C(=O)O; AEF = NCCOc1ccc(C[C@H](N)C(=O)O)cc1; Cit = NC(=O)NCCC[C@H](N)C(=O)O; Pen = CC(C)(S)[C@H](N)C(=O)O; αMeK = C[C@](N)(CCCCN)C(=O)O; Aib = CC(C)(N)C(=O)O; βAla = NCCC(=O)O

Legend:
[1] = Stability in simulated gastric fluid (SGF); assay type: in vitro ADME; settings: pH=2, 37° C., 20 μM peptide; for half-life at 20 μM: pig (pepsin), simulated gastric fluid (SGF) with porcine pepsin, read-out: SGF t½ (converted); for SGF t½: porcine pepsin
Method: SGF was prepared by adding 20 mg NaCl, 32 mg porcine pepsin (MP Biochemicals, catalog 02102599), and 70 μl HCl to 10 ml water (final pH=2). Aliquots of SGF (0.5 ml each) were pre-warmed at 37° C. To start the reaction, 1 μl of peptide stock solution (10 mM in DMSO) was added to 0.5 ml SGF and thoroughly mixed such that the final peptide concentration was 20 μM. The reactions were incubated at 37° C. with gentle shaking. At each time point (0, 15, 30, 60 min) 50 μl aliquots were removed and added to 200 ul acetonitrile containing 0.1% formic acid to quench the reaction. Samples are stored at 4° C. until the end of the experiment and centrifuged at 10,000 rpm for 5 minutes. Aliquots of the supernatant were removed, diluted 1:1 into distilled water containing internal standard, and analyzed by LCMS/MS. Percent remaining at each timepoint was calculated based on the peak area response ratio of test to compound to internal standard. Time 0 was set to 100%, and all later timepoints were calculated relative to time 0. Half-lives were calculated by fitting to a first-order exponential decay equation using GraphPad.

in vitro [2] = assay type: in vitro ADME; design: half-life: dose or concentration left out as unconfirmed; settings: pH 6.8, 37° C., § matrix is 100 fold dilution of standard SIF concentration; for SIF t½: simulated intestinal fluid, pancreatin; for half-life: simulated intestinal fluid (SIF) with pancreatin, read-out: SIF t½ (converted)
Method: SIF was prepared by adding 6.8 g of monobasic potassium phosphate and 10.0 g of pancreatin to 1.0 L of water. After dissolution, the pH was adjusted to 6.8 using NaOH. DMSO stocks (2 mM) were first prepared for the test compounds. Aliquots of the DMSO solutions were dosed into 6 individual tubes, each containing 0.5 mL of SIF, which is pre-warmed to 37° C. The final test compound concentration was 20 M. The vials were kept in a benchtop Thermomixer® for the duration of the experiment. At each timepoint (0, 5, 10, 20, 40, 60, or 360 minutes or 24 hours), 1.0 mL of acetonitrile containing 1% formic acid was added to one vial to terminate the reaction. Samples were stored at 4° C. until the end of the experiment. After the final timepoint is sampled, the tubes were mixed and then centrifuged at 3,000 rpm for 10 minutes. Aliquots of the supernatant were removed, diluted 1:1 into distilled water containing internal standard, and analyzed by LCMS/MS. Percent remaining at each timepoint was calculated based on the peak area response ratio of test to compound to internal standard. Time 0 was set to 100%, and all later timepoints were calculated relative to time 0. Half-lives were calculated by fitting to a first-order exponential decay equation using Graphpad.

IL-23R = target: T1, IL-23R (Homo sapiens, UniProt Q5VWK5); test: DB cells IL23R pSTAT3 cell assay (pStat3 HTRF); assay type: cell-based
T1 sequence (Q5VWK5 24-629): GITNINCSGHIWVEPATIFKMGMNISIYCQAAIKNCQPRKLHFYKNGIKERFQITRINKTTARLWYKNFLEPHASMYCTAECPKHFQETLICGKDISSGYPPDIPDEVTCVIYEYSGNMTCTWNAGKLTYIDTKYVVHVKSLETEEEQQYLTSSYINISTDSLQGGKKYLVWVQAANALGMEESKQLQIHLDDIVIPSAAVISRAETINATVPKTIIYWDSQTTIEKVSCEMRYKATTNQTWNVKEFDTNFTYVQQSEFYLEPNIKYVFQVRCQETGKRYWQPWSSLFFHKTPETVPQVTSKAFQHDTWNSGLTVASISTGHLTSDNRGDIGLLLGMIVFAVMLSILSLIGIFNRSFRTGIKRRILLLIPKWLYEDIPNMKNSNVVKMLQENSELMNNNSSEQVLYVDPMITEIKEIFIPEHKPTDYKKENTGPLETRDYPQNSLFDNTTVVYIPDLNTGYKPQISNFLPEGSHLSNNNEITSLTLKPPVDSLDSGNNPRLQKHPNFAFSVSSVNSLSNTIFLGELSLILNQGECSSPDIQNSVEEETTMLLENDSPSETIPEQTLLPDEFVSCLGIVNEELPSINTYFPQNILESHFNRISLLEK
Outline: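 DB cells (5×10E5/well, RPMI-1640 + 10% FBS) stimulated with 0.5 nM final IL-23 plus serially diluted test peptides for 30 min at 37 °C, 5% CO2. Phospho-STAT3 (Tyr705) in lysates measured by HTRF using a two-plate protocol.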

in vitro [3] = settings: human, 20% fecal homogenate (supernatant), anaerobic, pH 6.8
NK cells = test: NK cell based assay (IL-23/IL-18-induced IFNγ, Quantikine ELISA); settings: human primary NK cells, IL-23 at EC50 to EC75 + IL-18 10 ng/mL, IFNγ after 20 to 24 hours
Method: killer (NK) cells, purified from human peripheral blood of healthy donors by negative selection (Miltenyi Biotech, Cat #130-092-657), were cultured in complete media (RPMI 1640 containing […], L-glutamine and penicillin-streptomycin) in the presence of IL-2 (RnD, Cat #202-IL-010/CF) at 25 ng/mL. After 7 days, cells were centrifuged, and resuspended in complete media at IE6 cells/mL. […] After 20 to 24 hours, IFNγ in the supernatant was quantified using Quantikine ELISA (RnD, Cat #DIF50).

in vitro [4] = settings: cynomolgus monkey, 20% fecal homogenate (supernatant), anaerobic, pH 6.8
in vitro [5] = settings: both, SD, rat, plasma (EDTA)
Method: Peptides of interest (20 μM) were incubated with pre-warmed rat plasma (SD rat, mixed gender pooled, EDTA, filtered through 0.22 μm, BioreclamationIVT) at 37° C. […] Quenched samples were stored at 4° C. until the end of the experiment and centrifuged at 4,000 rpm for 10 minutes. The supernatant were diluted 1:1 with deionized water and analyzed using LC-MS. Percentage remaining at each time point was calculated based on the peak area ratio (analyte over internal standard) relative to the initial level at time zero. Half-lives were calculated by fitting to a first-order exponential decay equation using GraphPad.

[6] = Table E3, DB cells, IL-23 0.5 nM, 30 minutes at 37° C., read-out: pStat3 HTRF (IC50)

Compound	half-life at 20 μM [1]	SIF t½ (in vitro [2])	IC50 (IL-23R)	half-life at 20 μM (in vitro [3])	IC50 (NK cells)	half-life at 20 μM (in vitro [4])	half-life (in vitro [2])	IC50 (IL-23R; [6])	half-life at 20 μM (in vitro [5])	SGF t½ [1]
CC(=O)NCCCC[C@H](NC(=O)[C@](C)(CC(C)C)NC(=O)[C@H](Cc1ccc2ccccc2c1)NC(=O)[C@H](Cc1ccc(OCCN)cc1)NC(=O)[C@H]1NC(=O)[C@H](CCC(N)=O)NC(=O)[C@H](Cc2c[nH]c3ccc(F)cc23)NC(=O)[C@H]([C@@H](C)O)NC(=O)[C@H](CC(N)=O)NC(=O)[C@@H](NC(C)=O)C(C)(C)SSC1(C)C)C(=O)N[C@@H](CC(N)=O)C(=O)N[C@@H](CC(N)=O)C(N)=O [compound 7]	720 min	24 h	10 to 100 nM	–	–	–	–	–	–	–
CC(=O)NCCCC[C@H](NC(=O)[C@](C)(CCCCN)NC(=O)[C@H](Cc1ccc2ccccc2c1)NC(=O)[C@H](Cc1ccc(OCCN)cc1)NC(=O)[C@H]1NC(=O)[C@H](CCCNC(N)=O)NC(=O)[C@H](Cc2c[nH]c3c(C)cccc23)NC(=O)[C@H]([C@@H](C)O)NC(=O)[C@H](CC(N)=O)NC(=O)[C@@H](NC(C)=O)C(C)(C)SSC1(C)C)C(=O)N[C@@H](CC(N)=O)C(=O)NC(C)(C)C(N)=O [compound 264] (Ac-[Pen]NT[Trp(7-Me)][Cit][Pen][AEF][2Nal][αMeK]K(Ac)N[Aib]-NH2; disulfide 1-6)	–	–	–	> 1440 min	< 10 nM	> 1440 min	1080 min	< 1 nM	> 1440 min	–
CC(=O)NCCCC[C@H](NC(=O)[C@](C)(CC(C)C)NC(=O)[C@H](Cc1ccc2ccccc2c1)NC(=O)[C@H](Cc1ccc(OCCN)cc1)NC(=O)[C@H]1NC(=O)[C@H](CCC(N)=O)NC(=O)[C@H](Cc2c[nH]c3cc(Cl)ccc23)NC(=O)[C@H]([C@@H](C)O)NC(=O)[C@H](CC(N)=O)NC(=O)[C@@H](NC(C)=O)C(C)(C)SSC1(C)C)C(=O)N[C@@H](CC(N)=O)C(=O)N[C@@H](CC(N)=O)C(N)=O [compound 2]	780 min	24 h	10 to 100 nM	–	–	–	–	–	–	–
CC(=O)NCCCC[C@H](NC(=O)[C@](C)(CC(C)C)NC(=O)[C@H](Cc1c[nH]c2cc(Cl)ccc12)NC(=O)[C@H](Cc1ccc(OCCN)cc1)NC(=O)[C@H]1NC(=O)[C@H](CCC(N)=O)NC(=O)[C@H](Cc2c[nH]c3ccccc23)NC(=O)[C@H]([C@@H](C)O)NC(=O)[C@H](CC(N)=O)NC(=O)[C@@H](NC(C)=O)C(C)(C)SSC1(C)C)C(=O)N[C@@H](CC(N)=O)C(=O)N[C@@H](CC(N)=O)C(N)=O [compound 13]	–	–	1 to 10 nM	–	–	–	1020 min	–	–	24 h
CC(=O)NCCCC[C@H](NC(=O)[C@](C)(CC(C)C)NC(=O)[C@H](Cc1ccc2ccccc2c1)NC(=O)[C@H](Cc1ccc(OCCN)cc1)NC(=O)[C@H]1NC(=O)[C@H](CCC(N)=O)NC(=O)[C@H](Cc2c[nH]c3c(C)cccc23)NC(=O)[C@H]([C@@H](C)O)NC(=O)[C@H](CC(N)=O)NC(=O)[C@@H](NC(C)=O)C(C)(C)SSC1(C)C)C(=O)N[C@@H](CC(C)C)C(=O)NCCC(N)=O [compound 208]	–	–	–	> 1440 min	< 10 nM	> 1440 min	–	1 to 10 nM	120 min	–
CC(=O)NCCCC[C@H](NC(=O)[C@](C)(CC(C)C)NC(=O)[C@H](Cc1c[nH]c2cc(F)ccc12)NC(=O)[C@H](Cc1ccc(OCCN)cc1)NC(=O)[C@H]1NC(=O)[C@H](CCC(N)=O)NC(=O)[C@H](Cc2c[nH]c3ccccc23)NC(=O)[C@H]([C@@H](C)O)NC(=O)[C@H](CC(N)=O)NC(=O)[C@@H](NC(C)=O)C(C)(C)SSC1(C)C)C(=O)N[C@@H](CC(N)=O)C(=O)N[C@@H](CC(N)=O)C(N)=O [compound 14]	–	–	10 to 100 nM	–	–	–	540 min	–	–	24 h
CC(=O)NCCCC[C@H](NC(=O)[C@](C)(CCCCN)NC(=O)[C@H](Cc1ccc2ccccc2c1)NC(=O)[C@H](Cc1ccc(OCCN)cc1)NC(=O)[C@H]1NC(=O)[C@H](CCC(N)=O)NC(=O)[C@H](Cc2c[nH]c3c(C)cccc23)NC(=O)[C@H]([C@@H](C)O)NC(=O)[C@H](CCCNC(N)=O)NC(=O)[C@@H](NC(C)=O)C(C)(C)SSC1(C)C)C(=O)N[C@@H](CC(N)=O)C(=O)NCCC(N)=O [compound 238] (Ac-[Pen][Cit]T[Trp(7-Me)]Q[Pen][AEF][2Nal][αMeK]K(Ac)N[βAla]-NH2; disulfide 1-6)	–	–	–	> 1440 min	< 10 nM	420 min	–	1 to 10 nM	> 1440 min	–
CC(=O)NCCCC[C@H](NC(=O)[C@](C)(CCCN)NC(=O)[C@H](Cc1ccc2ccccc2c1)NC(=O)[C@H](Cc1ccc(OCCN)cc1)NC(=O)[C@H]1NC(=O)[C@H](CCC(N)=O)NC(=O)[C@H](Cc2c[nH]c3c(C)cccc23)NC(=O)[C@H]([C@@H](C)O)NC(=O)[C@H](CC(N)=O)NC(=O)[C@@H](NC(C)=O)C(C)(C)SSC1(C)C)C(=O)N[C@@H](CC(N)=O)C(=O)NCCC(N)=O [compound 278]	–	–	–	> 1440 min	< 10 nM	900 min	1140 min	< 1 nM	> 1440 min	–
CC(=O)NCCCC[C@@H]1NC(=O)[C@H](Cc2c[nH]c3c(C)cccc23)NC(=O)[C@H]([C@@H](C)O)NC(=O)[C@H](CC(N)=O)NC(=O)[C@@H](NC(C)=O)C(C)(C)SSC(C)(C)[C@@H](C(=O)N[C@@H](Cc2ccc(OCCN)cc2)C(=O)N[C@@H](Cc2ccc3ccccc3c2)C(=O)N[C@@](C)(CCCCN)C(=O)N[C@@H](CCCCNC(C)=O)C(=O)N[C@@H](CO)C(=O)NCCC(N)=O)NC1=O [compound 271]	–	–	–	> 1440 min	< 10 nM	> 1440 min	1320 min	1 to 10 nM	> 1440 min	–
CC(=O)NCCCC[C@H](NC(=O)[C@](C)(CC(C)C)NC(=O)[C@H](Cc1ccc2ccccc2c1)NC(=O)[C@H](Cc1ccc(OCCN)cc1)NC(=O)[C@H]1NC(=O)[C@H](CCC(N)=O)NC(=O)[C@H](Cc2c[nH]c3c(C)cccc23)NC(=O)[C@H]([C@@H](C)O)NC(=O)[C@H](CC(N)=O)NC(=O)[C@@H](NC(C)=O)C(C)(C)SSC1(C)C)C(=O)NCC(=O)NCCC(N)=O [compound 205]	–	–	–	> 1440 min	11 to 100 nM	> 1440 min	–	1 to 10 nM	60 min	–
CC(=O)NCCCC[C@@H]1NC(=O)[C@@H](NC(C)=O)C(C)(C)SSC(C)(C)[C@@H](C(=O)N[C@@H](Cc2ccc(OCCN)cc2)C(=O)N[C@@H](Cc2ccc3ccccc3c2)C(=O)N[C@@](C)(CCCCN)C(=O)N[C@@H](CCCCNC(C)=O)C(=O)N[C@@H](CC(N)=O)C(=O)NCCC(N)=O)NC(=O)[C@H](CCC(N)=O)NC(=O)[C@H](Cc2c[nH]c3c(C)cccc23)NC(=O)[C@H]([C@@H](C)O)NC1=O [compound 239]	–	–	–	> 1440 min	< 10 nM	420 min	–	1 to 10 nM	> 1440 min	–
CC(=O)NCCCC[C@H](NC(=O)[C@](C)(CC(C)C)NC(=O)[C@H](Cc1ccc2ccccc2c1)NC(=O)[C@H](Cc1ccc(OCCN)cc1)NC(=O)[C@H]1NC(=O)[C@](C)(CCCCN)NC(=O)[C@H](Cc2c[nH]c3c(C)cccc23)NC(=O)[C@H]([C@@H](C)O)NC(=O)[C@H](CC(N)=O)NC(=O)[C@@H](NC(C)=O)C(C)(C)SSC1(C)C)C(=O)N[C@@H](CC(N)=O)C(=O)NCCC(N)=O [compound 234]	–	–	–	> 1440 min	< 10 nM	> 1440 min	–	1 to 10 nM	420 min	–
CC(=O)NCCCC[C@@H]1NC(=O)[C@H](Cc2c[nH]c3c(C)cccc23)NC(=O)[C@H]([C@@H](C)O)NC(=O)[C@H](CC(N)=O)NC(=O)[C@@H](NC(C)=O)C(C)(C)SSC(C)(C)[C@@H](C(=O)N[C@@H](Cc2ccc(OCCN)cc2)C(=O)N[C@@H](Cc2ccc3ccccc3c2)C(=O)N[C@@](C)(CCCCN)C(=O)N[C@@H](CCC(=O)O)C(=O)NCCC(=O)NCCC(N)=O)NC1=O [compound 273]	–	–	–	> 1440 min	< 10 nM	720 min	480 min	1 to 10 nM	> 1440 min	–
